According to paper PMC9181543, “Lysosomal Exocytosis of Olivacine on the Way to Explain Drug Resistance in Cancer Cells” (International Journal of Molecular Sciences, 2022):

Tests used:
A549 cells [1] = test: Proton pump blocking test (omeprazole) for lysosomal exocytosis; assay type: cell-based, human; settings: 200 µM for 1 h before test compounds
Description: To assess whether the exocytosis of olivacine and ellipticine from cancer cells is lysosomal, a proton pump blocking test was performed. Omeprazole was added into A549 cells at a concentration of 200 µM for 1 h. The cell culture was then washed twice with PBS, and the cells were treated with tested compounds. The cell culture was assessed using an Evos FL microscope. The lysosomes were stained using LysoTracker™ Deep Red kit (L12492; Invitrogen). Cultured cells were evaluated using an Evos FL microscope, taking photos every 15 min. After treatment with olivacine or olivacine and omeprazole, analysis of mean cell fluorescence was performed from five independent replicates. In addition, 14 pictures were taken from each replicate, and 100 cells were analyzed by photomicrography using the ImageJ platform.

LoVo cells [2] = test: MTT assay (mitochondrial activity), LoVo; assay type: cell-based; settings: Homo sapiens
Description: (§1) The anticancer activity of tested compounds was assessed on five human cell lines selected from the panel of tumor cell lines recommended by the National Cancer Institute: A495 (lung carcinoma), CCRF/CEM (acute lymphoblastic leukemia), LoVo and LoVo/DX (two types of colorectal: non-resistant and resistant to doxorubicin), and MCF-7 (breast adenocarcinoma). In addition, the NHDF cell line (normal human dermal fibroblasts) was used to estimate cytotoxicity to noncancer cells. The A549, CCRF/CEM, LoVo, LoVo/DX, and MCF-7 cells were obtained from ECACC, and NHDF cells from LONZA, Belgium. The A549 and MCF-7 cells were grown in EMEM medium, CCRF/CEM cells in RPMI-1640, LoVo and LoVo/DX cells in DMEM/F-12, and NHDF cells in DMEM without phenol red. The cells were seeded in […] in the biological assay, as recommended by the National Cancer Institute. All culture media were supplemented with L-glutamine, penicillin, streptomycin, and 10% fetal bovine serum (FBS). Cells were incubated at 37 °C and 5% CO2. An assessment of the mitochondrial cell activity after applying tested compounds was carried out using the test MTT assay, recommended in the ISO 10993-5:2009 standard. As in the SRB assay, the cells were exposed to tested compounds after 24 h of initial incubation in 96-well plates. The MTT solution (1 mg/mL) was added to each well, and cells were incubated for 2 h. Finally, the supernatant was removed, and the formazan crystals were dissolved in isopropanol. After 30 min, absorbance at 570 nm in Victor2 microplate reader (PerkinElmer). Cell viability was determined as the IC50 ratio, i.e., the concentration of the compound in which the viability was reduced by half compared with the control.

LoVo/DX cells [3] = test: MTT assay (mitochondrial activity), LoVo/DX; assay type: cell-based; settings: Homo sapiens, LoVo/DX cells (doxorubicin-resistant)
Description: as §1

MCF-7 cells [4] = test: MTT assay (mitochondrial activity), MCF-7; assay type: cell-based; settings: Homo sapiens, MCF7
Description: as §1

NHDF cells [5] = test: MTT assay (mitochondrial activity), NHDF; assay type: cell-based; settings: Homo sapiens, NHDF normal cells
Description: as §1

A549 cells [6] = test: MTT assay (mitochondrial activity), A549; assay type: cell-based; settings: Homo sapiens
Description: as §1

CCRF/CEM cells [7] = test: SRB assay (total protein content), CCRF/CEM; assay type: cell-based; settings: Homo sapiens, 48 h incubation
Description: (§2) The anticancer activity of tested compounds was assessed on five human cell lines selected from the panel of tumor cell lines recommended by the National Cancer Institute: A495 (lung carcinoma), CCRF/CEM (acute lymphoblastic leukemia), LoVo and LoVo/DX (two types of colorectal: non-resistant and resistant to doxorubicin), and MCF-7 (breast adenocarcinoma). In addition, the NHDF cell line (normal human dermal fibroblasts) was used to estimate cytotoxicity to noncancer cells. The A549, CCRF/CEM, LoVo, LoVo/DX, and MCF-7 cells were obtained from ECACC, and NHDF cells from LONZA, Belgium. The A549 and MCF-7 cells were grown in EMEM medium, CCRF/CEM cells in RPMI-1640, LoVo and LoVo/DX cells in DMEM/F-12, and NHDF cells in DMEM without phenol red. The cells were seeded in […] in the biological assay, as recommended by the National Cancer Institute. All culture media were supplemented with L-glutamine, penicillin, streptomycin, and 10% fetal bovine serum (FBS). Cells were incubated at 37 °C and 5% CO2. One of the most popular in vitro tests to evaluate the activity of compounds with potential antitumor activity is the SRB assay. The sulforhodamine B dye is used, which binds to the protein at the appropriate pH. The assay allows for assessing cell mass and, indirectly, their proliferation. The advantage of the assay is that it measures cellular protein content and not the activity of any enzymes. The SRB assay was carried out according to the National Cancer Institute procedure. Cells were incubated in a culture medium for 24 h in 96-well plates. After 24 h, the control plate for each cell line was fixed with TCA to evaluate cell culture before treatment with tested compounds. […] Cell cultures were then fixed by adding 50% TCA at 4 °C for 1 h. After removing the supernatant, the plates were washed with water and dried. […] Growth inhibition was calculated following the NCI guidelines and expressed as the GI50 ratio, i.e., the concentration of the compound in which the amount of protein was reduced by half compared with the control.

CCRF/CEM cells [8] = test: MTT assay (mitochondrial activity), CCRF/CEM; assay type: cell-based; settings: Homo sapiens
Description: as §1

NHDF cells [9] = test: SRB assay (total protein content), NHDF; assay type: cell-based; settings: Homo sapiens, NHDF normal cells, 48 h incubation
Description: as §2

LoVo/DX cells [10] = test: SRB assay (total protein content), LoVo/DX; assay type: cell-based; settings: Homo sapiens, LoVo/DX cells (doxorubicin-resistant), 48 h incubation
Description: as §2

MCF-7 cells [11] = test: SRB assay (total protein content), MCF-7; assay type: cell-based; settings: Homo sapiens, MCF7, 48 h incubation
Description: as §2

LoVo cells [12] = test: SRB assay (total protein content), LoVo; assay type: cell-based; settings: Homo sapiens, 48 h incubation
Description: as §2

| IC50 (LoVo cells [2]) [µM] | IC50 (LoVo/DX cells [3]) [µM] | IC50 (MCF-7 cells [4]) [µM] | IC50 (A549 cells [6]) [µM] | GI50 (CCRF/CEM cells [7]) [µM] | IC50 (CCRF/CEM cells [8]) [µM] | GI50 (LoVo/DX cells [10]) [µM] | GI50 (MCF-7 cells [11]) [µM] | GI50 (LoVo cells [12]) [µM] | SMILES | effect on exocytosis of olivacine and ellipticine (A549 cells [1]) | IC50 (NHDF cells [5]) [µM] | GI50 (NHDF cells [9]) [µM] |
| --- | --- | --- | --- | --- | --- | --- | --- | --- | --- | --- | --- | --- |
| – | – | – | – | – | – | – | – | – | COc1ccc2[nH]c([S+]([O-])Cc3ncc(C)c(OC)c3C)nc2c1 (stereo not drawn) [Omeprazole] | protect against exocytosis | – | – |
| 10.2 ± 1.27 | 86.4 ± 25.4 | 4.33 ± 0.55 | 13.8 ± 1.03 | 0.74 ± 0.02 | 1.03 ± 0.02 | 14.1 ± 3.42 | 1.44 ± 0.23 | 1.62 ± 0.45 | COc1cccc2c1C(=O)c1c(O)c3c(c(O)c1C2=O)C[C@@](O)(C(=O)CO)C[C@@H]3O[C@H]1C[C@H](N)[C@H](O)[C@H](C)O1 [Doxorubicin] | – | 18.2 ± 4.46 | 13.7 ± 5.29 |
